Measurements as given in patent US9290741B2, “Simplified methods for generating endothelial cells from human pluripotent stem cells under defined conditions” (Wisconsin Alumni Research Foundation, priority 2013, dated 2016).

Assays:
[1] = system: hPSC-derived endothelial cells; assay: Flow cytometry analysis of ICAM-1 surface expression after TNF-α treatment; type: cell-based, human; conditions: 10 ng/mL TNF-α for 16 hours versus unstimulated cells
Excerpt: FIG. 6 Characterization of endothelial cells derived from hPSCs (A) 19-9-11 iPSCs were differentiated as illustrated in FIG. 3A using LaSR basal medium. At day 5, CD34^+ cells were enriched and cultured in endothelial medium on laminin-coated plates. At different time points, the cell numbers were counted. (B-D) the purified day 60 endothelial cells were immunostained with (B) VE-cadherin and CD31, and tested for (C) tube-forming ability upon VEGF treatment and the ability to (D) uptake acetylated low-density lipoprotein (AcLDL). (E) Flow cytometry analysis of surface protein expression of ICAM-1 of untreated cells or cells treated with 10 ng/mL TNF-α for 16 hours. Error bars represent the s.e.m. of three independent experiments. (F-G) Barrier phenotype of the hPSC-derived endothelial cells. […] Barrier function was assessed by measuring transendothelial electrical resistance (TEER) 48 hours after seeding. […] (F) Transendothelial electrical resistance (TEER) was measured as a function of time, and normalized to the initial TEER value (36.7±4.3 Ωcm^2. (G) TEER and fluorescent dextran permeability were measured 24 hours after plating. Error bars represent the s.e.m. of three biological samples. ** p<0.005, VEGF (or oME) versus control; t test. […]

[2] = system: 19-9-11 iPSCs; assay: Angioblast differentiation of hPSCs, flow cytometry of CD34 and CD31 at day 5; type: cell-based, human; conditions: for induction of angioblast differentiation (percentage of CD34^+CD31^+ cells): 0.6 μM CHIR98014 or 0.6 μM BIO-acetoxime 2 days in LaSR medium, then StemPro-34 3 days, no VEGF, compared with 6 μM CHIR99021
Method: Cells were then cultured in mTeSR1, changed daily. At day 0, cells were treated with 6-10 μM CHIR99021 (Selleckchem) for 2 days in LaSR basal medium, which consists of Advanced DMEM/F12, 2.5 mM GlutaMAX, and 60 μg/ml ascorbic acid (Sigma, A8960). […] Cells were dissociated into single cells with Accutase for 10 min and then fixed with 1% paraformaldehyde for 20 min at room temperature and stained with primary and secondary antibodies (Table 2) in PBS plus 0.1% Triton X-100 and 0.5% BSA. Data were collected on a FACSCaliber flow cytometer (Becton Dickinson) and analyzed using FlowJo.

[3] = system: hPSC-derived endothelial cells; assay: Monolayer integrity: transendothelial electrical resistance (TEER); type: cell-based, human; conditions: 100 ng/mL VEGF or 10 μM oME, versus control
[4] = system: hPSC-derived endothelial cells; assay: Monolayer integrity: 40-kDa FITC-dextran permeability; type: cell-based, human; conditions: 100 ng/mL VEGF or 10 μM oME, 24 hr of treatment, versus control
[5] = system: H9 cells; assay: Angioblast differentiation of hPSCs with PD0325901 addition, flow cytometry of CD34 and CD31 at day 5; type: cell-based, human; conditions: 1 μM PD0325901 added during differentiation induced with 6 μM CHIR99021
Method: FIG. 2 CD34^+CD31^+ angioblast differentiation induced by Gsk3 inhibitors in hPSCs is β-catenin dependent. […] At day 5, the percentage of CD34^+CD31^+ cells in culture was assessed by flow cytometry. (B) 19-9-11 iscramble and 19-9-11 […] cultured in mTeSR1 containing 2 μg/ml doxycycline. After 3 days, mRNA was collected and β-catenin expression evaluated by qPCR. Error bars represent the s.e.m. of 3 biological replicates. # […] versus iscramble; […] cultured in LaSR medium containing 6 μM CHIR99021 for 2 days before exposure to StemPro-34 medium for 3 days, with 2 μg/ml dox addition at the indicated times. 5 days after initiation of differentiation, cells were analyzed for CD34 and CD31 expression by flow cytometry. Error bars represent the s.e.m. of three independent experiments. […] hPSCs maintained on a MatrigelTM-coated surface in mTeSR1 were dissociated into single cells with Accutase (Life Technologies) at 37° C. for 5 min and then seeded onto a MatrigelTM-coated cell culture dish at 50,000 cell/cm^2 in mTeSR1 supplemented with 5 μM ROCK inhibitor Y-27632 (Selleckchem)(day -3) for 24 hours. Cells were then cultured in mTeSR1, changed daily. […] Data were collected on a FACSCaliber flow cytometer (Becton Dickinson) and analyzed using FlowJo.

[6] = system: 19-9-11 ishcat iPSCs; assay: Flow cytometry analysis of Brachyury expression during differentiation; type: cell-based, human; conditions: 6 μM CHIR99021, in the absence of dox
Method: FIG. 8 Knockdown of β-catenin abolishes endothelial differentiation of hPSCs 19-9-11 ishcat iPSCs were cultured in LaSR basal medium containing 6 μM CH and/or 2 μg/ml doxycycline for 2 days. Flow cytometry analysis of Brachyury expression was performed after 2 days of differentiation.
Cells were dissociated into single cells with Accutase for 10 min and then fixed with 1% paraformaldehyde for 20 min at room temperature and stained with primary and secondary antibodies (Table 2) in PBS plus 0.1% Triton X-100 and 0.5% BSA. Data were collected on a FACSCaliber flow cytometer (Becton Dickinson) and analyzed using FlowJo.

[7] = system: hPSC-derived endothelial cells; conditions: 50 ng/ml VEGF, 24 h; day 60 endothelial cells
Method: To assess the formation of capillary structures, 1×10^5 endothelial cells in 0.4 ml EGM-2 medium (Lonza) supplemented with 50 ng/ml VEGF (R&D Systems) were plated into one well of 24-well tissue culture plate pre-coated with 250 μl Matrigel™ (BD Bioscience). Tube formation was observed by light microscopy after 24 h of incubation.

TNFα
expression of ICAM1 [1]: greatly increased

BIO-acetoxime
induction of angioblast differentiation (percentage of CD34^+CD31^+ cells) [2]: effectively induced angioblast differentiation to a similar extent as CHIR99021

CO[C@@H]1[C@@H]2OP(=O)(O)OC[C@H]2O[C@H]1n1c(Sc2ccc(Cl)cc2)nc2c(N)ncnc21 [8-pCPT-2′O-Me-cAMP, 8-(4-chlorophenylthio)-2′-O-Me-cAMP]
transendothelial electrical resistance (TEER) [3]: increased | dextran permeability (40 kD) [4]: decreased

O=C(NOC[C@H](O)CO)c1ccc(F)c(F)c1Nc1ccc(I)cc1F [PD0325901]
effect on CD34^+CD31^+ cell differentiation [5]: substantially diminished

CHIR98014
induction of angioblast differentiation (percentage of CD34^+CD31^+ cells) [2]: effectively induced angioblast differentiation to a similar extent as CHIR99021

Cc1c[nH]c(-c2cnc(NCCNc3ccc(C#N)cn3)nc2-c2ccc(Cl)cc2Cl)n1 [CHIR99021]
Brachyury expressing cells by day 2 [6]: virtually pure population | CD31^+CD34^+ angioblasts generated ([2]; 6-10 μM CHIR99021 2 days, then 3 days StemPro-34 without VEGF, day 5): 25% | CD34^+CD31^+ cells generated ([2]; CHIR99021 (6 μM) 2 days in LaSR basal medium, then 3 days StemPro-34 with or without VEGF, day 5): more than 20% | CD34^+CD31^+ cells produced ([2]; LaSR basal medium, CHIR99021 2 days then 3 days without, seeding density 50,000 cells per cm2 at day -3): 55% | CD34^+CD31^+ cells in 5 days ([2]; single basal medium: LaSR basal medium with CHIR99021 2 days, then 3 days same medium without): 25% | CD34^+CD31^+ cells in 5 days ([2]; single basal medium: RPMI/B27 or EC medium containing serum, with CHIR99021 2 days, then 3 days without): not supporting differentiation to any detectable CD34^+CD31^+ cells

VEGF
transendothelial electrical resistance (TEER) [3]: sustained decrease | vascular tube formation in Matrigel matrix [7]: formed vascular tubes | dextran permeability (40 kD) [4]: increase | effect of VEGF treatment on yield of CD34^+CD31^+ cells ([2]; VEGF in StemPro-34 for 3 days after CHIR99021, day 5): did not significantly increase
